Among the data in patent publication US10752596B2, “Nitrogen-containing heteroaryl compound and pharmaceutical use thereof” (JAPAN TOBACCO INC., priority 2017, dated 2020) are IC50 values, retold here.

Molecules are shown by their SMILES.

human GLUT9, sequence (Q9NRM0 other isoform, or with tags, fused parts or gaps): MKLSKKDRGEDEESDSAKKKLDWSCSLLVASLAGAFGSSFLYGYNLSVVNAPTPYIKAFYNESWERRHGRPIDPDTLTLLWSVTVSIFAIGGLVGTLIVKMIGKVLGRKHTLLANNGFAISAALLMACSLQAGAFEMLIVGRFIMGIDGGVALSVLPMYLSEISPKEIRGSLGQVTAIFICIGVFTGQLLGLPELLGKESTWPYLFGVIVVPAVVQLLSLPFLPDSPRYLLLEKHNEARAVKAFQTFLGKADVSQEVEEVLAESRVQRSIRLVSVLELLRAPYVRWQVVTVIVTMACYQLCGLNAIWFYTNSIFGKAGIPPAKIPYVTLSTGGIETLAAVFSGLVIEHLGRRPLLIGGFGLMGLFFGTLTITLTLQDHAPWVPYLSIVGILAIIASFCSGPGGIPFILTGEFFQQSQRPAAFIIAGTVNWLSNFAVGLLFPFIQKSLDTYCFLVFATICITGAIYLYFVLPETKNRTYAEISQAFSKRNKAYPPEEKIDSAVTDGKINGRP

This test deals with human GLUT9 (Homo sapiens (Human), UniProt Q9NRM0). The test is described as follows: Evaluation of human GLUT9 inhibitory activity ([14C] uric acid uptake in human GLUT9 expressing HEK293T cells transduced with Uricase/Hyper). The test is classed as cell-based. Particulars: final 300 μM uric acid, 6 min, human GLUT9 stably expressing HEK293T cells, read-out: humans GLUT9 inhibitory activity (IC50 value (μM)). The protocol:
A method for measuring GLUT9 inhibitory activity using human GLUT9 expressing cells transduced with Uricase/Hyper is shown hereinafter. GLUT9 inhibitory activity ([…]) of the test compound was calculated based on the intracellular uptake amount of labeled uric acid ([^14C] uric acid) transported by GLUT9.
1. Preparation of Human GLUT9 Expression Plasmid
Human GLUT9S coding region (NM_001001290.1) was amplified by PCR method using PrimeSTAR MAX DNA Polymerase (Takara Bio). The obtained PCR product was subjected to agarose gel electrophoresis, and the desired size of PCR product was purified by QIAquick Gel Extraction Kit (QIAGEN). Next, pEBMulti-Bsd vector (Wako Pure Chemical Industries, Ltd.) was subjected to digestion using restriction enzymes SalI and EcoR V, and linked to the PCR product containing GLUT9S by In-Fusion reaction using In-Fusion HD Cloning Kit (Takara Bio). XL10-Gold Competent Cells (Agilent Technologies) were transformed in In-Fusion reaction solution, and the obtained transfectants were cultured with shaking overnight in LB medium to which Blasticidin S HCl (Thermo Fisher Scientific) was added. Human GLUT9 expression plasmid DNA was prepared from the collected transfectants using EndoFree Plasmid Kit (Takara Bio).
2. Establish of Human GLUT9 Stably Expressing Cell
HEK293T cells (American Type Culture Collection, DS Pharma Biomedical) were seeded in a 6 well plate at 1×10^6 cells/well. Next day, human GLUT9 expression plasmid was transfected by using Lipofectamine 3000 Reagent (Thermo Fisher Scientific) as follows. Lipofectamine 3000 Reagent (5 μL) was diluted with Opti-MEM (125 μL, Thermo Fisher Scientific). Separately, plasmid DNA (2.5 μg) was diluted with Opti-MEM (125 μL), and P3000 Reagent (5 μL) was added thereto. The obtained solution was mixed with the previously obtained diluted solution, and the mixture was left stand at room temperature for 5 min, and added to the cells. Next day, the transfected cells were diluted and reseeded in a 6 well plate at 4×10^5 cells/well, and drug selection was performed in the presence of 30 μg/mL of Blasticidin S HCl, and thereby, Blasticidin-resistant human GLUT9 stably expressing cell line was established. Mock cells were prepared by introducing pEBMulti-Bsd vector into HEK293T cells in a similar manner.
3. Preparation of Uricase/Hyper Expression Plasmid
Uricase/Hyper expression plasmid was prepared by linking the coding regions of Aspergillus Flavus-derived uricase gene and pHyPer-Cyto vector (Evrogen) HyPer gene to the pEBMulti-Hyg vector (Wako Pure Chemical Industries, Ltd.) and then introducing it. The preparation method was performed by reference to Gout and Nucleic Acid Metabolism 2013, 37(2), 93-101, and seven repeated linker sequence of glycine-glycine-glycine-serine was prepared herein.
4. Preparation of Human GLUT9-Uricase/Hyper Coexpressing Cell
Human GLUT9 stably expressing cells were seeded at 3.6×10^7 cells per 225 cm^2 flask. Next day, Uricase/Hyper expression plasmid was transfected by using Lipofectamine 3000 Reagent as follows. Lipofectamine 3000 Reagent (40 μL) was diluted with Opti-MEM (750 μL). Separately, plasmid DNA (20 μg) was diluted with Opti-MEM (750 μL), and P3000 Reagent (40 μL) was added thereto. The obtained solution was mixed with the previously obtained diluted solution, and the mixture was left stand at room temperature for 5 min, and added to the cells. Next day, transfected cells were collected to prepare human GLUT9-Uricase/Hyper coexpressing cells.
5. Evaluation of GLUT9 Inhibitory Activity
Uricase/Hyper transiently-transfected human GLUT9 stably expressing cells or mock cells (blank) were seeded in a 96 well plate (Corning) at 1.6×10^5 cells/well, and cultured overnight at 37° C., 5% CO2. D-MEM/high glucose (Wako Pure Chemical Industries, Ltd.) containing 10% Fetal Bovine Serum (Lifetechnology) and 100 units/ml penicillin/100 μg/ml streptomycin (GIBCO) was used as a medium.
Turning to `COCCCCc1cnc(-c2cc(F)c(OC)c(F)c2)c(-c2ccc(C(=O)O)c(Cl)c2)c1` [Example 131], the IC50 (in general, the concentration that inhibits the measured activity by half) amounted to 0.155 µM.
With `COCCCCc1cnc(-c2ccc(OC)cc2)c(-c2ccc(CCC(=O)O)cc2)c1` [Example 127], the IC50 was 0.0688 µM.
Regarding `COc1c(F)cc(-c2ncc(CC(C)C)nc2-c2ccc(C(=O)O)c(Cl)c2)cc1F` [Example 151], the IC50 worked out at 0.106 µM.
Under `CCCCc1cnc(-c2ccc(OC)cc2F)c(-c2ccc(C(=O)O)cc2)n1` [Example 3] stands 0.134 µM; under `CCCCc1cnc(-c2ccc(OC)cc2)c(-c2ccc(C(=O)O)cc2)c1` [Example 18], 0.0942 µM.
In the case of `COc1ccc(-c2ncc(CCC3CCCCC3)cc2-c2ccc(C(=O)O)cc2)cc1` [Example 42] it was 6.5 µM.
`CCCCc1cnc(-c2ccc(C#N)cc2)c(-c2ccc(C(=O)O)cc2)n1` [Example 9]: the IC50 was found to be 0.483 µM.
In the case of `CCCCc1cnc(-c2ccc(C(F)(F)F)c(OC)c2)c(-c2ccc(C(=O)O)cc2)n1` [Example 23], the IC50 came to 0.992 µM.
In the case of `COCCCCc1cnc(-c2ccc(OC)cc2)c(-c2ccc(C(=O)O)c(C)c2)c1` [Example 126] it was 0.0497 µM.
Under `CCCCc1cnc(-c2ccc(OC)cc2)c(-c2ccc(C(C)(C)C(=O)O)cc2)n1` [Example 48] stands 7.12 µM.
As to `CCCCc1cnc(-c2cc(F)c(OC)c(F)c2)c(-c2ccc(C(=O)O)c(C)c2)n1` [Example 152], the IC50 is 0.059 µM.
In the case of `COCCCc1cnc(-c2cc(F)c(OC)c(F)c2)c(-c2ccc(C(=O)O)c(C)c2)c1` [Example 115] it was 0.0497 µM.
Under `CCCCc1cnc(-c2ccc(C(F)(F)F)c(C)c2)c(-c2ccc(C(=O)O)cc2)n1` [Example 26] stands 0.154 µM; under `COCCCCc1cnc(-c2cc(F)c(OC)c(F)c2)c(-c2ccc(C(=O)O)c(Cl)c2)n1` [Example 136], 0.25 µM; under `COCCCCc1cnc(-c2cc(F)c(OC)c(F)c2)c(-c2ccc(CCC(=O)O)cc2)c1` [Example 132], 0.0519 µM.
Regarding `COCCCCc1cnc(-c2ccc(OC)cc2)c(-c2ccc(C(=O)O)cc2)c1` [Example 123], the IC50 amounted to 0.0589 µM.
